Laboratory results as given in US9670184B2, “Amorphous allisartan isoproxil, preparation method therefor, and pharmaceutical composition containing amorphous allisartan isoproxil” (SHENZHEN SALUBRIS PHARMACEUTICALS CO. LTD, priority 2013, dated 2017).

Columns and labels:
Type in all cases: physicochemical
[1] = Electrostatic phenomenon of the dried powder (observation); conditions: powder after drying
[2] = Repose angle of powders by fixed-funnel method; conditions: powder sieved through 100-mesh screen
Excerpt: (§1) The powders of experiment 1 and 3 were pulverized and then sieved through a 100-mesh screen to obtain powders with particle size similar to the crystal powder. Then the repose angles of the powders were detected respectively by using a fixed-funnel method; and the bulk densities of the powders were detected respectively by using measurement in a graduated cylinder (Method I of Bulk Density disclosed in Ph. Eur), and the results were shown in the table below: […]

[3] = Bulk density of powders, measurement in a graduated cylinder (Method I of Bulk Density, Ph. Eur); conditions: powder sieved through 100-mesh screen
Excerpt: as §1

SMILES | Electrostatic phenomenon [1] | Repose Angle [2] | Bulk Density [3] [g/mL]
CCCCc1nc(Cl)c(C(=O)OCOC(=O)OC(C)C)n1Cc1ccc(-c2ccccc2-c2nnn[nH]2)cc1 [Amorphous allisartan isoproxil obtained from experiment 1] [2-butyl-4-chloro-1-[2′-(1H-tetrazol-5-yl)-1,1′-biphenyl-methyl]-imidazole-5-carboxylic acid, 1-[(isopropoxy)-carbonyloxy]methyl ester] | no obvious electrostatic phenomenon | 33-36 ° | 0.77
CCCCc1nc(Cl)c(C(=O)OCOC(=O)OC(C)C)n1Cc1ccc(-c2ccccc2-c2nnn[nH]2)cc1 [Amorphous allisartan isoproxil obtained from experiment 3] [2-butyl-4-chloro-1-[2′-(1H-tetrazol-5-yl)-1,1′-biphenyl-methyl]-imidazole-5-carboxylic acid, 1-[(isopropoxy)-carbonyloxy]methyl ester] | no obvious electrostatic phenomenon | 33-36 ° | 0.79
CCCCc1nc(Cl)c(C(=O)OCOC(=O)OC(C)C)n1Cc1ccc(-c2ccccc2-c2nnn[nH]2)cc1 [Experiment 2, 2-butyl-4-chloro-1-[2′-(1H-tetrazol-5-yl)-1,1′-biphenyl-methyl]-imidazole-5-carboxylic acid, 1-[(isopropoxy)-carbonyloxy]methyl ester] | no obvious electrostatic phenomenon |  | 
CCCCc1nc(Cl)c(C(=O)OCOC(=O)OC(C)C)n1Cc1ccc(-c2ccccc2-c2nnn[nH]2)cc1 [Patent Crystal, 2-butyl-4-chloro-1-[2′-(1H-tetrazol-5-yl)-1,1′-biphenyl-methyl]-imidazole-5-carboxylic acid, 1-[(isopropoxy)-carbonyloxy]methyl ester, reference compound] | obvious electrostatic phenomenon | 48-53 ° | 0.51
